The source of these data is patent publication EP0609518A1, “Optically active aminopyridine derivative and use thereof” (THE GREEN CROSS CORPORATION, priority 1992, dated 1994).

The subject of one series is rat. The series can be described thus: Toxicity by single administration to rat. The settings on record: single administration of 450 mg/kg to rat. Format: in vivo. The source says: Toxicity by single administration to rat
Series [1] deals with male spontaneously hypertensive rat. The series can be described thus: Antihypertensive action (systolic pressure by tail-cuff method). The format is in vivo. To be noted: 3 mg/kg p.o., dissolved in brine, at 1 hour from the oral administration. Here is the method:
The compound (hydrochloride) of the present invention obtained in Example 1 was dissolved in brine, and forcibly administered (p.o.) to male spontaneously hypertensive rat at 3 mg/kg. The systolic pressure was measured with a programmable sphygmonanometer (PS-200A, manufactured by Riken Kaihatsu, Japan) by tail-cuff method [Ohkubo H et al. Proc. Natl. Acad. Sci. USA, 87, 5153-5157 (1990)].

Consider `Cl.N#CN=C(Nc1ccc(N)nc1)N[C@@H]1C[C@@H]2CC[C@H]1C2` [hydrochloride of (+)-N-(6-amino-3-pyridyl)-N''-cyano-N'-[(1S] [hydrochloride of (+)-N-(6-amino-3-pyridyl)-N''-cyano-N'-[(1S,2R,4R)-2-norbornyl]guanidine], for which the death case entry with rat is “did not result in a death case”. This molecule yielded a vasodepressor action in series [1] of 33%.
